Experiments:
[1] = general statement, no test described; cited from earlier work
[2] = In vitro release testing (IVRT), static vertical diffusion cell, synthetic membrane, UV-VIS analysis; format: physicochemical; details: petrolatum ointment with 0.5% loteprednol etabonate and 0.3% tobramycin sulfate; 1-octanol:1-hexanol:water 25:25:50 v:v:v
Method: In Vitro Release Testing Method.
Release of pharmaceutically active compounds from semi-solid dosage forms was evaluated in an in vitro model of static vertical diffusion cell using a synthetic membrane model. […] The samples were analyzed using a UV-VIS spectrometer. […]
Test time points: 0, 2, 4, 6, 8, and 10 hours. Each test was conducted in four replicates (N=4). Square root of test time points: 0, 1.41, 2.00, 2.45, 2.83, and 3.16.
Membrane: Polypropylene (pore size: 0.45 micron).
Static vertical diffusion cell parameters: Area of the membrane diffusion area: 0.95 square centimeters.
Dosing level: infinite dose at about 3.0 milliliter of the semi-solid dosage form.
Static vertical diffusion cell consists of a donor and receptor compartment separated by a synthetic membrane. The dosing compartment was for the dosed semi-solid dosage form. […] Before dosing, the diffusion cell was pre-incubated at 32° C. for about 20 to 45 minutes. The t=0 samples were taken after the incubation period prior to dosing.
During the experiment, the receptor fluid was in intimate contact with the membrane through a mixing mechanism, such as, e.g., magnetic stirring bar, or orbit shaker, and maintained at 32° C. using a heating mechanism, such as, e.g., dry heat block, or circulating water bath. At each time point, entire content of the receptor fluid was collected and replaced with a fresh batch pre-incubated at 32° C.
An ointment dosage form was prepared as an example of the semi-solid dosage form. Petrolatum was heated to about 50 to 70° C. while mixing. Xylene Cyanol was added to the heated petrolatum while heating and mixing. The mixture was mixed until uniform. Then, the mixture was slowly cooled to room temperature while mixing to yield the ointment formulation.

In the case of Tobramycin sulfate, the solubility in water [1] is listed as “freely soluble”.

For CCOC(=O)O[C@]1(C(=O)OCCl)CC[C@H]2[C@@H]3CCC4=CC(=O)C=C[C@]4(C)[C@H]3[C@@H](O)C[C@@]21C [loteprednol etabonate, Loteprednol etabonate], the “phase of the biphasic receptor fluid in which the released compound is solubilized” value [2] was “mostly solubilized in the organic 1-octanol/1-hexanol phase”.

Reference: US20180292376A1, “DIFFUSION CELL TESTING METHODS CONTAINING BIPHASIC RECEPTOR FLUIDS” (BUFFERAD Illinois Inc. d/b/a Zyleris PharmaTech, Inc., priority 2017, published 2018)
